Assay results from US9198420B2, “Rodenticidal norbormide analogues” (priority 2012, dated 2015).

What was measured:
[1] = test system: rat caudal artery; assay: Rat caudal artery ring contractile force (vasoconstrictory activity); parameters: species or system rat (male Wistar)
Experimental: Male Wistar rats (150-250 g) were obtained from Charles River Italia (Milano, Italy) and killed by decapitation. Ventral caudal artery was isolated, placed in Tyrode solution at room temperature and cleaned of extraneous fatty and connective tissue under a dissection microscope. All vessels were cut into rings 2 mm long, mounted on a custom-built plexiglass support by means of two intraluminal tungsten wires and placed in 20 mL double-jacketed organ baths filled with Tyrode solution of the following composition (mM): NaCl 125, KCl 5, CaCl2 2.7, MgSO4 1, KH2PO4 1.2, NaHCO3 25 and glucose 11, maintained at 37° C., pH 7.35, bubbled with 95% O2 and […]. The endothelium was removed by gently rubbing the lumen of the rings with a very thin rough-surfaced tungsten wire (caudal artery). The mechanical activity of the rings was detected by means of an isometric force transducer (Ugo Basile, Comerio, Italy) coupled to a pen recorder (Ugo Basile, Comerio, Italy). Rings were passively stretched to impose a resting tension (2 g) and were allowed to equilibrate for 60 min. After equilibration, each ring was repeatedly simulated with both KCl (90 mM) and phenylephrine (10 μM) until reproducible responses were obtained. To verify the absence of the endothelium, rings contracted with 1 μM phenylephrine were exposed to […] carbamylcholine. […] Each compound was tested for the vasoconstrictor activity at a concentration of 50 μM, which has been previously reported to be the one evoking the maximal response to norbormide. The contractile responses to the compounds were expressed as percent of the 90 mM KCl response.

[2] = test system: Sprague Dawley rats; assay: In vivo lethality, intravenous injection via the tail; parameters: species or system rat (Sprague Dawley); settings: 20 mg/Kg, rat, n = 3, Table 8
Experimental: (§1) Sprague Dawley rats (150-200 g) were used to appraise the rodenticidal activity of the compounds put forward for in vivo evaluation. Briefly, prior to administration the compounds were dissolved in 0.2 M hydrochloric acid (5% DMSO overall), to the desired dose, and without delay either injected intravenously, via the tail, or orally gavaged. All treated animals were housed in a quiet room and monitored every minute (i.v) or every 15 min (oral) to verify early signs of toxicity.

[3] = test system: Sprague Dawley rats; assay: In vivo lethality, oral gavage; parameters: species or system rat (Sprague Dawley); settings: rat, n = 3, Table 8
Experimental: as §1

[4] = Simulated gastric fluid (SGF) hydrolytic stability assay; format: physicochemical; settings: simulated gastric fluid without pepsin, pH 1.2, 37° C., 1 h, n = 3; for % NRB released, Hydrolytic Stability (simulated gastric fluid): footnote c: compounds not exhibiting vasoconstriction
Experimental: All in vivo candidates were subjected to a 1 h hydrolytic stability appraisal in the presence of SGF, without pepsin (United States Pharmacopoeia 24) [200 μL total volume, sodium chloride solution (0.03 M) acidified to pH 1.2 with concentrated hydrochloric acid, at a final compound concentration of 200 μM, 2.5% DMSO overall, 37° C., n=3], to investigate any potential chemical instabilities that may occur in the acidic environment of the stomach prior to uptake. Analysis was by RP-LCMS at an injection volume of 5 μL.

[5] = Rat serum assay (release of NRB or NRB analogue); format: in vitro ADME; settings: 80% rat serum, 37° C., 3 h, n = 3
Experimental: The hydrolytic stability of compounds of the invention in rat blood was evaluated using in vitro rat serum obtained from Sigma-Aldrich and stored at −78° C. Similar assay conditions to those reported by Li Di and co-workers (Int. J. Pharm. 2005, 297, 110-119) were followed [200 μL total volume, 80% rat serum (diluting with phosphate buffer (0.1 M, pH 7.4)), at a final compound concentration of 200 μM, 2.5% DMSO overall, 37° C., 3 h, n=3] using an Eppendorf Thermomixer Compact. Reactions were quenched by transferring 150 μL of the incubation mixture to 450 μL of ice-cold acetonitrile, affording a final compound/NRB or NRB analogue concentration of 50 μM. Samples were centrifuged at 14,500×g for 15 min using an Eppendorf Mini Spin Plus centrifuge, at ambient temperature. 400 μL of the supernatant was removed and transferred to clean tubes. Analysis was by RP-LCMS at an injection volume of 20 μL. Each compound and corresponding NRB or NRB analogue were subjected to external calibration curves at 50 μM, 100 μM and 200 μM to allow conversion of absorbance unit area into nmol, from which the percentage of NRB or NRB analogue released from each compound was calculated.

[6] = Table 7, compounds of formula (V)
[7] = Table 5, compounds of formula (III)

SMILES | Vasoconstriction: maximum contractile effect as a % of 90 mM KCl contraction ([1]; Table 1, compound at 50 μM) | Vasoconstriction: maximum contractile effect as a % of 90 mM KCl contraction ([1]; Table 4, pre-cleavage, n = 3) | % NRB released, Hydrolytic Stability (simulated gastric fluid) [4] | % NRB released, Rat Serum [5] | Vasoconstriction: maximum contractile effect as a % of 90 mM KCl contraction [1, 7] | Vasoconstriction: maximum contractile effect as a % of 90 mM KCl contraction ([1]; n = 3, pre-cleavage, Table 6) | % NRB released, Hydrolytic Stability [4] | other results
O=C1C2C3C=C(C(O)(c4ccccc4)c4ccccn4)C(C3=C(c3ccccc3)c3ccccn3)C2C(=O)N1CCO (stereo not drawn) [Compound 102, N-2′-Hydroxyethyl-5-(α-hydroxy-α-2-pyridylbenzyl)-7-(α-2-pyridylbenzylidene)-5-norbornene-2,3-dicarboximide] | – | – | – | – | – | – | – | Vasoconstriction: maximum contractile effect as a % of 90 mM KCl contraction [1, 6]: ≧132%; Vasoconstriction: maximum contractile effect as a % of 90 mM KCl contraction ([1]; n = 3, Table 8): ≧132%; In vivo lethality (i.v.) [2]: yes^b; In vivo lethality (oral) ([3]; 20 mg/Kg): yes^c,d; In vivo lethality (oral) ([3]; 40 mg/Kg): yes^c,d
NCCN1C(=O)C2C3C=C(C(O)(c4ccccc4)c4ccccn4)C(C3=C(c3ccccc3)c3ccccn3)C2C1=O (stereo not drawn) [Compound 106, N-2′-Aminoethyl-5-(α-hydroxy-α-2-pyridylbenzyl)-7-(α-2-pyridylbenzylidene)-5-norbornene-2,3-dicarboximide] | – | – | – | – | – | – | – | Vasoconstriction: maximum contractile effect as a % of 90 mM KCl contraction [1, 6]: ≧132%; Vasoconstriction: maximum contractile effect as a % of 90 mM KCl contraction ([1]; n = 3, Table 8): ≧132%; In vivo lethality (i.v.) [2]: yes^b
O=C(O)CN1C(=O)C2C3C=C(C(O)(c4ccccc4)c4ccccn4)C(C3=C(c3ccccc3)c3ccccn3)C2C1=O (stereo not drawn) [Compound 107, N-Carboxymethyl-5-(α-hydroxy-α-2-pyridylbenzyl)-7-(α-2-pyridylbenzylidene)-5-norbornene-2,3-dicarboximide] | – | – | – | – | – | – | – | Emax ([1]; Table 7, compounds of formula (V), read-out: Vasoconstriction: maximum contractile effect as a % of 90 mM KCl contraction): ≥ 132%; Vasoconstriction: maximum contractile effect as a % of 90 mM KCl contraction ([1]; n = 3, Table 8): ≧132%; In vivo lethality (i.v.) [2]: yes^b
CCCCCCCCCCCC(=O)OCCN1C(=O)C2C3C=C(C(O)(c4ccccc4)c4ccccn4)C(C3=C(c3ccccc3)c3ccccn3)C2C1=O (stereo not drawn) [Compound 112, N-2′-Dodecanoyloxyethyl-5-(α-hydroxy-α-2-pyridylbenzyl)-7-(α-2-pyridylbenzylidene)-5-norbornene-2,3-dicarboximide] | 0% | 0% | 0^c % | 19.3 ± 1.3% | – | – | – | –
O=C(C=Cc1ccccc1)OCCN1C(=O)C2C3C=C(C(O)(c4ccccc4)c4ccccn4)C(C3=C(c3ccccc3)c3ccccn3)C2C1=O (stereo not drawn) [Compound 120, N-2′-Cinnamoyloxyethyl-5-(α-hydroxy-α-2-pyridylbenzyl)-7-(α-2-pyridylbenzylidene)-5-norbornene-2,3-dicarboximide] | 66% | 66% | 0^c % | 14.1 ± 0.4% | – | – | – | –
CC(CN1C(=O)C2C3C=C(C(O)(c4ccccc4)c4ccccn4)C(C3=C(c3ccccc3)c3ccccn3)C2C1=O)OC(=O)C=Cc1ccccc1 (stereo not drawn) [Compound 135, N-2′-Cinnamoyloxypropyl-5-(α-hydroxy-α-2-pyridylbenzyl)-7-(α-2-pyridylbenzylidene)-5-norbornene-2,3-dicarboximide] | 0% | 0% | 0^c % | 33.8 ± 6.1% | – | – | – | –
O=C(C=Cc1ccccc1)OCCCCN1C(=O)C2C3C=C(C(O)(c4ccccc4)c4ccccn4)C(C3=C(c3ccccc3)c3ccccn3)C2C1=O (stereo not drawn) [Compound 137, N-4′-Cinnamoyloxybutyl-5-(α-hydroxy-α-2-pyridylbenzyl)-7-(α-2-pyridylbenzylidene)-5-norbornene-2,3-dicarboximide] | 0% | 0% | 0^c % | 81.0 ± 0.8% | – | – | – | –
O=C(CCC(=O)OCCN1C(=O)C2C3C=C(C(O)(c4ccccc4)c4ccccn4)C(C3=C(c3ccccc3)c3ccccn3)C2C1=O)OCCN1C(=O)C2C3C=C(C(O)(c4ccccc4)c4ccccn4)C(C3=C(c3ccccc3)c3ccccn3)C2C1=O (stereo not drawn) [Compound 138, 5-(α-Hydroxy-α-2-pyridylbenzyl)-7-(α-2-pyridylbenzylidene)-N-2′-succinoyloxyethyl-5-norbornene-2,3-dicarboximide dimer] | – | – | – | 7.7 ± 0.2% | 0% | 0% | 0% | –
O=C(CCCCC(=O)OCCN1C(=O)C2C3C=C(C(O)(c4ccccc4)c4ccccn4)C(C3=C(c3ccccc3)c3ccccn3)C2C1=O)OCCN1C(=O)C2C3C=C(C(O)(c4ccccc4)c4ccccn4)C(C3=C(c3ccccc3)c3ccccn3)C2C1=O (stereo not drawn) [Compound 139, N-2′-Adipoyloxyethyl-5-(α-hydroxy-α-2-pyridylbenzyl)-7-(α-2-pyridylbenzylidene)-5-norbornene-2,3-dicarboximide dimer] | – | – | – | 11.7 ± 1.6% | 20% | 20% | 0% | –
O=C(CCCCCCC(=O)OCCN1C(=O)C2C3C=C(C(O)(c4ccccc4)c4ccccn4)C(C3=C(c3ccccc3)c3ccccn3)C2C1=O)OCCN1C(=O)C2C3C=C(C(O)(c4ccccc4)c4ccccn4)C(C3=C(c3ccccc3)c3ccccn3)C2C1=O (stereo not drawn) [Compound 140, 5-(α-Hydroxy-α-2-pyridylbenzyl)-7-(α-2-pyridylbenzylidene)-N-2′-suberoyloxyethyl-5-norbornene-2,3-dicarboximide dimer] | – | – | – | 9.9 ± 1.3% | 0% | 0% | 0% | –
O=C(CCCCCCCCCCC(=O)OCCN1C(=O)C2C3C=C(C(O)(c4ccccc4)c4ccccn4)C(C3=C(c3ccccc3)c3ccccn3)C2C1=O)OCCN1C(=O)C2C3C=C(C(O)(c4ccccc4)c4ccccn4)C(C3=C(c3ccccc3)c3ccccn3)C2C1=O (stereo not drawn) [Compound 142, N-2′-Dodecanedioyloxyethyl-5-(α-hydroxy-α-2-pyridylbenzyl)-7-(α-2-pyridylbenzylidene)-5-norbornene-2,3-dicarboximide dimer] | – | – | – | <5% | 0% | 0% | 0% | –
O=C(OCCN1C(=O)C2C3C=C(C(O)(c4ccccc4)c4ccccn4)C(C3=C(c3ccccc3)c3ccccn3)C2C1=O)c1ccc(C(=O)OCCN2C(=O)C3C4C=C(C(O)(c5ccccc5)c5ccccn5)C(C4=C(c4ccccc4)c4ccccn4)C3C2=O)cc1 (stereo not drawn) [Compound 143, 5-(α-Hydroxy-α-2-pyridylbenzyl)-7-(α-2-pyridylbenzylidene)-N-2′-terephthaloyloxyethyl-5-norbornene-2,3-dicarboximide dimer] | – | – | – | 27.5 ± 1.4% | 0% | 0% | 0% | –
